In patent publication US20210113602A1, “USE OF 6-THIO-2'-DEOXYGUANOSINE (6-THIO-dG) TO TREAT MELANOMA” (The Board of Regents of the University of Texas System, priority 2018, published 2021):

Experiments:
[1] = tested on: NRAS mutant melanoma cells; experiment: Telomere dysfunction-induced foci (TIF) assay; format: cell-based, human; conditions: 6-thio-dG for 7 days
Method: Supplementary FIGS. 6a-b. […] NRAS mutant melanoma cells WM3000 were transduced with TERT shRNA and treated with NAC […] for 7 days. (Supplementary FIG. 6a) TIFs were assessed by indirect immunofluorescence combined with fluorescence in situ hybridization (FISH). Representative images are shown (scale bar=10 μm). (Supplementary FIG. 6b) Quantification of TIF positive cells. Cells were scored as TIF positive when three or more y-H2AS foci (green) were co-localizing with telomere foci (red). Data represent average of thirteen fields imaged +/−SD.
Supplementary FIGS. 8a-d. NRAS mutant melanoma cells are sensitive to the telomere uncapping agent 6-thio-dG. NRAS^mut melanoma cells were treated with 6-thio-dG for 6, 12 or 18 days. (Supplementary FIG. 8a) Relative cell number was assessed by Cyrstal Violet assay and calculated relative to DMSO-treated cells. […] (Supplementary FIG. 8c) NRAS^mut cells were treated with 6-thio-dG for 7 days and telomere-induced foci (TIF) were determined by indirect immunofluorescence combined with fluorescence in situ hybridization (FISH). […] (Supplementary FIG. 8d) Quantification of TIF assay. Cells were scored as TIF-positive when four or more γ-H2AX foci (green) were co-localizing with telomere foci (red). […] P values were calculated by unpaired Student's t-test.
DNA damage and telomere dysfunction assay (TIF). […] Mean fluorescence staining was quantified by flow cytometry. […]

[2] = tested on: NRAS mutant melanoma cells; experiment: Mitochondrial ROS, MitoSox Red; format: cell-based, human; conditions: 1 μM 6-thio-dG for 7 days
Method: FIGS. 3a-g. Telomere dysfunction enhances oxidative stress leading to upregulation of an antioxidant program. (FIGS. 3a-d) NRASmut melanoma cells were transduced with TERT shRNA (FIG. 3a, FIG. 3c) or treated with 1 μM 6-thio-dG for 7 days (FIG. 3b, FIG. 3d). mRNA levels of the indicated genes were quantified by qRT-PCR (FIG. 3a, FIG. 3b). Mitochondrial superoxide production was measured by MitoSox Red fluorescence (FIG. 3c, FIG. 3d) and expressed as fluorescence relative to vector or DMSO controls. (FIG. 3e) NRASmut melanoma cells were treated with 1 μM of 6-thio-dG for the indicated times and SOD2 protein levels measured by Western blotting. (FIG. 3f) SOD2 was silenced using shRNA. Transduced M93-047 cells were treated with DMSO or 1 μM of 6-thio-dG and cell death was assessed by Annexin V/PI straining. (FIG. 3g) M93-047 cells were transduced with a SOD2 lentiviral construct or empty vector control (pLX304). Transduced cells were treated with increasing doses (1, 2.5 and 5 μM) of 6-thio-dG for 7 days and cell death was assessed. […]
FIGS. 4a-e. […] Cell death was assessed by Annexin V and PI staining. […] Cells were stained with Annexin V and PI and percent cell death was determined by flow cytometry. (FIGS. 4c-e) Cells were treated as in FIG. 4b and mitochondrial ROS levels were measured using Mitosox Red by FACS. […] P values were calculated using unpaired Student's t-test; * p<0.05; ***p<0.005. […]

Nc1nc2c(ncn2[C@H]2C[C@H](O)[C@@H](CO)O2)c(=S)[nH]1 [6-thio-dG, 6-thio-2′-deoxy-guanosine]
TIFs [1]: increased levels | mitochondrial ROS levels [2]: increased mitochondrial ROS levels
